US20260091082A1, “CYCLIC PEPTIDE DERIVATIVE COMPOSITION FOR TREATING OR PREVENTING EYE DISEASE” (DKS Co. Ltd., priority 2022, published 2026)
Where “and” joins values, the source holds several entries; their conditions need not be identical. Equal entries are not always repeated. Entries after “also recorded” stand apart in the source; their conditions may differ.

Legend:
[1] = tested on: laser-induced choroidal neovascularization rat model; experiment: Laser-induced choroidal neovascularization rat model: CNV area in choroidal flat mount (FITC-dextran); assay type: in vivo; details: for Area of CNV Lesion, Mean: 14 days 4 times a day, N=10; for Area of CNV Lesion, Mean / Individual Value of CNV Area in Each Animal: 14 days after laser
Procedure: The groups were set as in Table 8 below. Laser irradiation was performed on the right eye in 10 animals in each group. EYLEA (registered trademark) was administered intravitreally into the right eye of individuals in Group 2 immediately after laser irradiation. For the individuals of Groups 1, 3, and 4, eyedrop administration of the administration substances of each group was performed four times a day from the day of laser irradiation to the day before eyeball enucleation.
Animals to be laser-irradiated were subjected to pupil dilation with Mydorin (registered trademark) P ophthalmic solution, and subjected to general anesthesia by intramuscular injection of a mixed solution of ketamine hydrochloride/xylazine hydrochloride (4:1, v/v) (1 mL/kg) into the thigh muscle. Then, fundus of the right eye was then observed using a slit lamp (SL-130, Carl Zeiss Meditec AG), and laser irradiation was performed at six locations using a green laser photocoagulation device (GYC-500, Nidek Co., Ltd.), avoiding thick capillaries of the retina. The laser conditions were a wavelength of 532 nm (green), a spot size of 50 μm, an irradiation time of 0.1 sec, and a laser irradiation intensity of 300 mW. Except for the individuals to be administered EYLEA (registered trademark), sodium hyaluronate (Hyalein (registered trademark) ophthalmic solution 0.3%, Santen Pharmaceutical Co., Ltd.) as an eye drop for treatment of corneal and conjunctival epithelial disorders was instilled into both eyes after laser irradiation.
Levofloxacin hydrate (CRAVIT (registered trademark) 1.5% ophthalmic solution, Santen Pharmaceutical Co., Ltd.) as a broad-spectrum antibacterial eye drop and oxybuprocaine hydrochloride (Benoxil (registered trademark) 0.4% ophthalmic solution, Santen Pharmaceutical Co., Ltd.) as an ophthalmic topical anesthetic were once instilled into the right eye of rats in Group 2 (EYLEA (registered trademark) administration group) after end of laser irradiation, and then EYLEA (registered trademark) was intravitreally administered at a dose of 200 μg/5 μL/eye using a 33 G two-stage injection needle and a microsyringe (Ito Manufacturing Co., Ltd.). The microsyringe was washed with D-PBS before administration. Hyalein (registered trademark) ophthalmic solution 0.3% was instilled into both eyes after intravitreal administration.
Eyedrop administration of the test substance and the negative control administration solution was performed in a volume of 5 μL/eye using a micropipette (Eppendorf Research Plus V, Eppendorf) at the administration period and the number of times determined for each group (see Group constitution table of Item (2)). At that time, since a test substance solution adheres to an outer side of the tip, care was taken so that the adhering test substance solution was wiped off with a Kimwipe once each time of eyedrop administration, and an excessive amount of the test substance solution was not instilled. In addition, although the tip of the pipette tip was sharp, care was taken not to damage the eyeball surface. Immediately before administration, the administration solution was lightly (about several seconds) centrifuged using a small microcentrifuge Wonder Spin, and the supernatant was used for administration.
Fourteen days after laser irradiation (Day 14), under general anesthesia by intramuscular femoral administration (1 mL/kg) of a ketamine hydrochloride/xylazine hydrochloride (4:1, v/v) mixed solution, a 4% FITC-dextran solution was administered to the tail vein at a dose of 40 mg/l mL/animal.
After 1 minute from the tail vein administration of the 4% FITC-dextran solution, rats were euthanized by excessive anesthesia by administration of 129.6 mg/mL sodium pentobarbital solution and the right eye ball was enucleated. The enucleated eyeball was fixed in a 4% paraformaldehyde phosphate buffer (FUJIFILM Wako Pure Chemical Corporation, hereinafter referred to as 4% PFA) for 12 to 30 hours at normal temperature. […]

[2] = Body weight measurement during the CNV rat test; assay type: in vivo; details: for Body Weight (Average): 14 days 4 times a day
Procedure: The appearance, behavior, and state of excrement or the like were observed every day.
The body weight was measured on the animal arrival date, the preliminary housing end date (grouping date), the eyedrop administration start date, the laser irradiation date (Day 0), and the eyeball enucleation date (Day 14).

[3] = General condition observation (clinical signs) in anterior chamber aqueous humor pressure load rat model; assay type: in vivo, Rat; Slc: SD; set-up: key: —: No anormal sign; details: 1 mg/mL eye drop, right eye, per animal
Procedure: • Species and strains: Rat; Slc: SD • Number of animals on arrival and sex: 50 males • Age in weeks at arrival: 6 weeks old • Body weight range at arrival: 147.2 to 170.0 g • Source: Japan SLC, Inc.
The body weight of the animals was measured at a frequency of once a week or more, and the general condition observation was performed every day.
• Administration route: Eyedrop administration, intravenous administration • Administration method (eyedrop): Eyedrop administration was performed on a treated eye (right eye) of a rat using a micropipette 4 times a day (at intervals of 1.5 hours or more). • Administration method (intravenous): The amount of administration solution, calculated from the body weight on the day of administration, was administered from the tail vein using a syringe and an injection needle about 30 minutes before ischemic load. • Time of administration: Administration was performed according to the following schedule.

In the case of `CC[C@@]1(C)Oc2cc(ccc2O)C[C@H](NC)C(=O)N[C@@H](C(C)C)C(=O)N[C@@H]1C(=O)N[C@@H](CC(=O)O)C(=O)O` [Compound 9], the “Area of CNV Lesion, Mean” value ([1]; Group 3, eye drop 5 μg/5 μL/eye (1 mg/mL)) is reported as 471160.8 pixel, the “Individual Value of CNV Area in Each Animal” value ([1]; Group 3 individual animals, eye drop 5 μg/5 μL/eye) is reported as 330375.8 pixel and 515551.8 pixel and 492136.5 pixel and 558285.0 pixel and 496494.0 pixel and 466828.5 pixel and 460996.3 pixel and 460127.0 pixel and 449544.0 pixel and 481268.8 pixel and the “Area of CNV Lesion, Mean” value ([1]; Group 4, eye drop 50 μg/5 μL/eye (10 mg/mL)) is reported as 444173.4 pixel. The “Individual Value of CNV Area in Each Animal” value ([1]; Group 4 individual animals, eye drop 50 μg/5 μL/eye) was 313878.7 pixel and 591175.3 pixel and 382504.5 pixel and 527509.5 pixel and 426003.0 pixel and 447473.0 pixel and 394615.5 pixel and 494652.3 pixel and 438691.5 pixel and 425230.3 pixel, the “CNV area compared with Group 1 (saline) / drug efficacy, in words” value ([1]; eyedrop 1 mg/mL (Group 3) and 10 mg/mL (Group 4), Dunnett's test) was “no significant difference in CNV area was observed; also recorded: no drug efficacy on CNV area was observed” and the “Dose dependence of CNV area reduction, in words” value ([1]; eyedrop 1 mg/mL and 10 mg/mL, 4 times/day for 14 days) was “reduction in CNV area correlated with the eyedrop administration dose was confirmed”. For the same molecule, the “Body Weight (Average)” value ([2]; Group 3, eye drop 5 μg/5 μL/eye, Day 0 (Laser injection)) was 152.66 g, the “Body Weight (Average)” value ([2]; Group 3, eye drop 5 μg/5 μL/eye, Day 14 (Enucleation)) was 184.36 g and the “Body Weight (Average)” value ([2]; Group 3, eye drop 5 μg/5 μL/eye, Day −3 or Day −2 (Grouping)) was 141.80 g. For the same molecule, the “Weight (g) (Individual)” value ([2]; Group 3 individual animals, eye drop 5 μg/5 μL/eye, Enucleation (Day 14)) was 187.51 g and 200.36 g and 188.53 g and 178.12 g and 191.73 g and 185.42 g and 178.06 g and 179.74 g and 187.00 g and 167.09 g, the “Weight (g) (Individual)” value ([2]; Group 3 individual animals, eye drop 5 μg/5 μL/eye, Grouping (Day −3 or −2)) was 142.67 g and 150.51 g and 144.41 g and 133.08 g and 140.65 g and 139.40 g and 138.22 g and 145.52 g and 148.31 g and 135.25 g and the “Weight (g) (Individual)” value ([2]; Group 3 individual animals, eye drop 5 μg/5 μL/eye, Laser injection (Day 0)) was 156.06 g and 160.40 g and 156.65 g and 141.07 g and 149.62 g and 153.89 g and 146.49 g and 158.03 g and 159.18 g and 145.16 g. The “Body Weight (Average)” value ([2]; Group 4, eye drop 50 μg/5 μL/eye, Day 0 (Laser injection)) was 152.84 g, the “Body Weight (Average)” value ([2]; Group 4, eye drop 50 μg/5 μL/eye, Day 14 (Enucleation)) was 186.10 g and the “Body Weight (Average)” value ([2]; Group 4, eye drop 50 μg/5 μL/eye, Day −3 or Day −2 (Grouping)) was 141.65 g. The “Weight (g) (Individual)” value ([2]; Group 4 individual animals, eye drop 50 μg/5 μL/eye, Enucleation (Day 14)) was 171.86 g and 175.04 g and 182.32 g and 197.31 g and 192.55 g and 179.90 g and 198.77 g and 183.99 g and 193.77 g and 185.47 g, the “Weight (g) (Individual)” value ([2]; Group 4 individual animals, eye drop 50 μg/5 μL/eye, Grouping (Day −3 or −2)) was 133.40 g and 133.47 g and 138.61 g and 149.89 g and 142.02 g and 140.70 g and 144.50 g and 145.24 g and 149.29 g and 139.35 g and the “Weight (g) (Individual)” value ([2]; Group 4 individual animals, eye drop 50 μg/5 μL/eye, Laser injection (Day 0)) was 140.92 g and 141.64 g and 146.31 g and 156.67 g and 152.34 g and 152.92 g and 159.45 g and 160.10 g and 163.58 g and 154.47 g. The Clinical signs ([3]; Day 0, animals 201-210 (test group 2, dosed on the 2 days before model creation)) was “—”, the Clinical signs ([3]; Day 0, animals 301-310 (test group 3, dosed 13 days from the day after model creation)) was “—” and the Clinical signs ([3]; Day 1, animals 201-210 (test group 2, dosed on the 2 days before model creation)) was “—”. The Clinical signs ([3]; Day 1, animals 301-310 (test group 3, dosed 13 days from the day after model creation)) was “—”, the Clinical signs ([3]; Day 2, animals 201-210 (test group 2, dosed on the 2 days before model creation)) was “—” and the Clinical signs ([3]; Day 2, animals 301-310 (test group 3, dosed 13 days from the day after model creation)) was “—”. For the same molecule, the Clinical signs ([3]; Day 3, animals 201-210 (test group 2, dosed on the 2 days before model creation)) was “—”, the Clinical signs ([3]; Day 3, animals 301-310 (test group 3, dosed 13 days from the day after model creation)) was “—” and the Clinical signs ([3]; Day 4, animals 201-210 (test group 2, dosed on the 2 days before model creation)) was “—”. The Clinical signs ([3]; Day 4, animals 301-310 (test group 3, dosed 13 days from the day after model creation)) was “—”, the Clinical signs ([3]; Day 5, animals 201-210 (test group 2, dosed on the 2 days before model creation)) was “—” and the Clinical signs ([3]; Day 5, animals 301-310 (test group 3, dosed 13 days from the day after model creation)) was “—”. The Clinical signs ([3]; Day 6, animals 201-210 (test group 2, dosed on the 2 days before model creation)) was “—”, the Clinical signs ([3]; Day 6, animals 301-310 (test group 3, dosed 13 days from the day after model creation)) was “—” and the Clinical signs ([3]; Day −1, animals 201-210 (test group 2, dosed on the 2 days before model creation)) was “—”. For the same molecule, the Clinical signs ([3]; Day −1, animals 301-310 (test group 3, dosed 13 days from the day after model creation)) was “—”, the Clinical signs ([3]; Day −2, animals 201-210 (test group 2, dosed on the 2 days before model creation)) was “—” and the Clinical signs ([3]; Day −2, animals 301-310 (test group 3, dosed 13 days from the day after model creation)) was “—”.
